From ChEMBL document CHEMBL1671749, “blaROB-1 presence on pB1000 in Haemophilus influenzae is widespread, and variable cefaclor resistance is associated with altered penicillin-binding proteins” (2010)
In brackets after ≈: the same amount, converted by molar mass.

Key:
Format in all cases: functional
Haemophilus influenzae [1] = test: Antibacterial activity against ROB-1 producing ICE- negative Haemophilus influenzae F3 by Etest method
Haemophilus influenzae [2] = test: Antibacterial activity against ROB-1 producing ICE- negative Haemophilus influenzae F50 by Etest method
Haemophilus influenzae [3] = test: Antibacterial activity against ROB-1 and TEM-1 producing ICE- positive Haemophilus influenzae F48 by Etest method
Haemophilus influenzae [4] = test: Antibacterial activity against ROB-1 and TEM-1 producing ICE- positive Haemophilus influenzae F52 by Etest method
Haemophilus influenzae [5] = test: Antibacterial activity against ROB-1 producing ICE- negative Haemophilus influenzae H23 by Etest method
Haemophilus influenzae [6] = test: Antibacterial activity against ROB-1 producing ICE- negative Haemophilus influenzae H62 by Etest method
Haemophilus influenzae [7] = test: Antibacterial activity against ROB-1 producing ICE- positive Haemophilus influenzae F45 harboring D350N, V547I and N569S mutations in PBP3 by Etest method
Haemophilus influenzae [8] = test: Antibacterial activity against ROB-1 and TEM-1 producing ICE- positive Haemophilus influenzae F49 harboring D350N, V547I and N569S mutations in PBP3 by Etest method
Haemophilus influenzae [9] = test: Antibacterial activity against ROB-1 and TEM-1 producing ICE- positive Haemophilus influenzae F54 harboring V489G, M503R, R517H, V547I and N569S mutations in PBP3 by Etest method
Haemophilus influenzae [10] = test: Antibacterial activity against ROB-1 producing ICE- negative Haemophilus influenzae F41 by Etest method
Haemophilus influenzae [11] = test: Antibacterial activity against ROB-1 and TEM-1 producing ICE- positive Haemophilus influenzae F47 by Etest method
Haemophilus influenzae [12] = test: Antibacterial activity against […] by Etest method
Haemophilus influenzae [13] = test: Antibacterial activity against ROB-1 producing ICE- negative Haemophilus influenzae Rd transformant harboring plasmid PB1000 by Etest method
Haemophilus influenzae [14] = test: Antibacterial activity against ROB-1 producing ICE- negative Haemophilus influenzae F3 by broth microdilution method
Haemophilus influenzae [15] = test: Antibacterial activity against ROB-1 producing ICE- negative Haemophilus influenzae F50 by broth microdilution method
Haemophilus influenzae [16] = test: Antibacterial activity against ROB-1 producing ICE- positive Haemophilus influenzae F48 by broth microdilution method
Haemophilus influenzae [17] = test: Antibacterial activity against ROB-1 producing ICE- positive Haemophilus influenzae F52 by broth microdilution method
Haemophilus influenzae [18] = test: Antibacterial activity against ROB-1 producing ICE- negative Haemophilus influenzae H23 by broth microdilution method
Haemophilus influenzae [19] = test: Antibacterial activity against ROB-1 producing ICE- negative Haemophilus influenzae H62 by broth microdilution method
Haemophilus influenzae [20] = test: Antibacterial activity against ROB-1 producing ICE- positive Haemophilus influenzae F45 harboring D350N, V547I and N569S mutations in PBP3 by broth microdilution method
Haemophilus influenzae [21] = test: Antibacterial activity against ROB-1 producing ICE- positive Haemophilus influenzae F49 harboring D350N, V547I and N569S mutations in PBP3 by broth microdilution method
Haemophilus influenzae [22] = test: Antibacterial activity against ROB-1 producing ICE- positive Haemophilus influenzae F54 harboring V489G, M503R, R517H, V547I and N569S mutations in PBP3 by broth microdilution method
Haemophilus influenzae [23] = test: Antibacterial activity against ROB-1 producing ICE- negative Haemophilus influenzae F41 by broth microdilution method
Haemophilus influenzae [24] = test: Antibacterial activity against ROB-1 producing ICE- positive Haemophilus influenzae F47 by broth microdilution method
Haemophilus influenzae [25] = test: Antibacterial activity against […] by broth microdilution method
Haemophilus influenzae [26] = test: Antibacterial activity against ROB-1 producing ICE- negative Haemophilus influenzae Rd transformant harboring plasmid PB1000 by broth microdilution method

## N[C@@H](C(=O)N[C@@H]1C(=O)N2C(C(=O)O)=C(Cl)CS[C@H]12)c1ccccc1 [CEFACLOR ANHYDROUS]
Haemophilus influenzae [1]
  MIC: 4 µg/mL (≈ 10.9 µM)
Haemophilus influenzae [2]
  MIC: 2 µg/mL (≈ 5.44 µM)
Haemophilus influenzae [3]
  MIC: 6 µg/mL (≈ 16.3 µM)
Haemophilus influenzae [4]
  MIC: 6 µg/mL (≈ 16.3 µM)
Haemophilus influenzae [5]
  MIC: 2 µg/mL (≈ 5.44 µM)
Haemophilus influenzae [6]
  MIC: 6 µg/mL (≈ 16.3 µM)
Haemophilus influenzae [7]
  MIC: 24 µg/mL (≈ 65.3 µM)
Haemophilus influenzae [8]
  MIC: 16 µg/mL (≈ 43.5 µM)
Haemophilus influenzae [9]
  MIC: 32 µg/mL (≈ 87 µM)
Haemophilus influenzae [10]
  MIC: 4 µg/mL (≈ 10.9 µM)
Haemophilus influenzae [11]
  MIC: 4 µg/mL (≈ 10.9 µM)
Haemophilus influenzae [12]
  MIC: 0.5 µg/mL (≈ 1.36 µM)
Haemophilus influenzae [13]
  MIC: 4 µg/mL (≈ 10.9 µM)
Haemophilus influenzae [14]
  MIC: 16 µg/mL (≈ 43.5 µM)
Haemophilus influenzae [15]
  MIC: 16 µg/mL (≈ 43.5 µM)
Haemophilus influenzae [16]
  MIC: 16 µg/mL (≈ 43.5 µM)
Haemophilus influenzae [17]
  MIC: 16 µg/mL (≈ 43.5 µM)
Haemophilus influenzae [18]
  MIC: 16 µg/mL (≈ 43.5 µM)
Haemophilus influenzae [19]
  MIC: 32 µg/mL (≈ 87 µM)
Haemophilus influenzae [20]
  MIC: 64 µg/mL (≈ 174 µM)
Haemophilus influenzae [21]
  MIC: 64 µg/mL (≈ 174 µM)
Haemophilus influenzae [22]
  MIC: 64 µg/mL (≈ 174 µM)
Haemophilus influenzae [23]
  MIC: 32 µg/mL (≈ 87 µM)
Haemophilus influenzae [24]
  MIC: 32 µg/mL (≈ 87 µM)
Haemophilus influenzae [25]
  MIC: 1 µg/mL (≈ 2.72 µM)
Haemophilus influenzae [26]
  MIC: 32 µg/mL (≈ 87 µM)
